Results on one compound are retold here after patent US20260027068A1, “METHODS OF ADM[…]-KETAMINE” (Perception Neuroscience, Inc., priority 2022, published 2026).

Bounds are passed on as bounds.

One data set relates to CYP2B6. To be noted: in vitro.
A further data set deals with CYP1A2. The data set is described as follows: In vitro CYP induction.
For a further data set, the system named is healthy subjects. From the text:
To date, there has been one clinical trial that evaluated the safety of R(−)-ketamine.

Data set [1] concerns mouse model of depression. The note with it: cited from earlier work.

On to `CN[C@@]1(c2ccccc2Cl)CCCCC1=O.Cl` [R(−)-ketamine, (2R)-2-(2-chlorophenyl)-2-(methylamino)cyclohexan-1-one], for which the CYP2B6 induction entry in the data set on CYP2B6 is on record as “inducer”. Further, in the data set with CYP1A2, the CYP1A2 induction entry is “inducer”. The “Safety findings compared with 100 mg or 150 mg doses” value in the data set on healthy subjects (30 mg and 60 mg doses) is “fewer transient elevations in mean systemic blood pressure, less sedation, fewer psychological or psychotic and dissociative effects, and fewer episodes of altered consciousness”. Moreover, the “Dose level most similar to 15 mg S(+)-ketamine in terms of safety profile” value with healthy subjects (healthy subjects) worked out at 60 mg. For the same compound, in the data set on healthy subjects (single 40-minute IV infusions, healthy subjects), the “Doses with acceptable safety profiles” value is on record as at most 150 mg. The “Antidepressant effects on depression-like symptoms” value in data set [1] was “more potent antidepressant effects on the depression-like symptoms when compared to S(+)-ketamine”.
